Measurements taken from patent publication US20030232813A1, “Novel amino substituted pyrimidinone derivatives” (ORCHID CHEMICALS & PHARMACEUTICALS LIMITED, priority 2002, published 2003).

Assays:
Male Wistar rats [1] = assay: Rat carrageenan paw edema test; assay type: in vivo; conditions: oral
Description: Rat Carrageenan Paw Edema Test
The carrageenan paw edema test was performed as described by Winter et al (Proc. Soc. Exp Biol Me., 111, 544, 1962). Male Wistar rats were selected and the body weight were equivalent within each group. The rats were fasted for eighteen hours with free access to water. The rats were dosed orally with the test compound suspended in vehicle containing 0.5% Methycellulose. The control rats were administered the vehicle alone. After one hour the rats were injected with 0.1 ml of 1% Carrageenan solution in 0.9% saline into the sub plantar surface of the right hind paw. Paw thickness was measured using vernier calipers at 0 time, after 2 and 3 hours. The average of foot swelling in drug treated animals was compared with that of control animals. Anti-inflammatory activity was expressed as the percentage inhibition of edema compared with control group [Arzneim-Forsch/Drug Res 43(I), 1, 44-50, 1993; Otterness and Bliven, Laboratory Models for Testing NSAIDs, In Non-Steroidal Anti-Inflammatory Drugs, (J. Lombardino, ed. 1985)]. The data of the selected compounds in this invention are summarized in Table I. In order to evaluate their role on the ulcer formation, the animals were sacrificed by cervical dislocation, the stomach removed and flushed with 1% formalin (10 ml). The stomach was opened along the greater curvature. […]

Male Wistar rats [2] = assay: Gastro-ulcerogenic potential (ulcer formation in the rats of the paw edema test); assay type: in vivo, rat; conditions: oral dosing
Description: The carrageenan paw edema test was performed as described by Winter et al (Proc. Soc. Exp Biol Me., 111, 544, 1962). Male Wistar rats were selected and the body weight were equivalent within each group. The rats were fasted for eighteen hours with free access to water. The rats were dosed orally with the test compound suspended in vehicle containing 0.5% Methycellulose. The control rats were administered the vehicle alone. After one hour the rats were injected with 0.1 ml of 1% Carrageenan solution in 0.9% saline into the sub plantar surface of the right hind paw. Paw thickness was measured using vernier calipers at 0 time, after 2 and 3 hours. The average of foot swelling in drug treated animals was compared with that of control animals. Anti-inflammatory activity was expressed as the percentage inhibition of edema compared with control group [Arzneim-Forsch/Drug Res 43(I), 1, 44-50, 1993; Otterness and Bliven, Laboratory Models for Testing NSAIDs, In Non-Steroidal Anti-Inflammatory Drugs, (J. Lombardino, ed. 1985)]. The data of the selected compounds in this invention are summarized in Table I. In order to evaluate their role on the ulcer formation, the animals were sacrificed by cervical dislocation, the stomach removed and flushed with 1% formalin (10 ml). The stomach was opened along the greater curvature. The haemorrhagic puncta and sulci were identified macroscopically.

COX-2 = target: T1, COX-2 (Homo sapiens, UniProt P35354); assay: Human whole blood assay, COX-2 inhibition (LPS-induced PGE2); assay type: cell-based; conditions: 24 h
T1 construct: Fresh blood was collected in tubes containing potassium EDTA by vein puncture from male volunteers; endogenous in cells; host or cells: fresh human whole blood from male volunteers, aspirin-pretreated, LPS-stimulated for 24 h
T1 sequence (P35354 18-604): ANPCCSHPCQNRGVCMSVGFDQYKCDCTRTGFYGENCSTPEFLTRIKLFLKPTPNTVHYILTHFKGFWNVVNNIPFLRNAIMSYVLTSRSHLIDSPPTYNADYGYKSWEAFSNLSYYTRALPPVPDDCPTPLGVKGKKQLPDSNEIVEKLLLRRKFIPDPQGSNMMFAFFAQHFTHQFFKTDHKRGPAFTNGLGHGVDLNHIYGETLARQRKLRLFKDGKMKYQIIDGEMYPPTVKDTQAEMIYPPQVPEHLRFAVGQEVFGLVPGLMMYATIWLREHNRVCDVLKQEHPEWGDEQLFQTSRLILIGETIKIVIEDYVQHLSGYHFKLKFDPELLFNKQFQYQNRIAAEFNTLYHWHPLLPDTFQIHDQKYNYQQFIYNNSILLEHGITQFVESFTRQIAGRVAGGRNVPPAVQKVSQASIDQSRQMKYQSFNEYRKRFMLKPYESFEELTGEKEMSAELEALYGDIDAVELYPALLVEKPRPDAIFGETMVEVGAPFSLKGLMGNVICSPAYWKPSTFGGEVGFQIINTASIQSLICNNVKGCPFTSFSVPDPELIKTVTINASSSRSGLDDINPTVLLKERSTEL
Description: In vitro Evaluation of Cycloxygenase-2 (COX-2) Inhibition Activity
The COX-2 inhibition activity of the compounds illustrated in the examples was determined by the following method.
Human whole blood provides a protein and cell rich milieu appropriate for the study of biochemical efficacy of anti-inflammatory compounds such as selective COX-2 inhibitors. […] This is correlating with the observation that COX-2 inhibitors have no effect on prostaglandin E2 (PGE2) production in normal blood. These inhibitors are active only after incubation of human blood with lipopolysaccharide (LPS), which induces COX-2 production in the blood.
Fresh blood was collected in tubes containing potassium EDTA by vein puncture from male volunteers. The subjects should have no apparent inflammatory conditions and not taken NSAIDs for atleast 7 days prior to blood collection. Blood was treated with aspirin in vitro (10 μg/ml, at time zero) to inactivate COX-1, and then with LPS (10 μg/ml) along with test agents or vehicle. The blood was incubated for 24 h at 37° C., after which the tubes were centrifuged, the plasma was separated and stored at −80° C. (J Pharmacol Exp Ther 271, 1705, 1994; Proc Natl Acad Sci USA 96, 7563, 1999). The plasma was assayed for PGE2 using Cayman ELISA kit as per the procedure outlined by the manufacturer (Cayman Chemicals, Ann Arbor, USA). […]

IL-6 = IL-6 production from LPS-stimulated human monocytes (ELISA); assay type: cell-based; conditions: Monocyte; for inhibition at 1 µM: Conc. 1 μM
Description: (§1) This assay determines the effect of test compounds on the production of IL-6 from human monocytes. Compounds are tested for their ability to downregulate the production of IL-6 in activated monocytes. Test compounds were incubated for three, six and twenty four hours with human monocytes. Lipopolysaccharide was used to stimulate the monocytes. The level of Interleukin-6 is quantitated using Enzyme-Linked Immunosorbent assay performed in a 96 well format.

TNF-α = TNF-α production from LPS-stimulated human monocytes (ELISA); assay type: cell-based; conditions: Monocyte; for inhibition at 10 µM: Conc. 10 μM
Description: Tumor Necrosis Factor Alpha (TNF-α)
as §1, with “TNF-α” for “IL-6”, “were” for “are”, “TNF-α was” for “Interleukin-6 is”

Row | melting point [°C] | SMILES | inhibition at 1 µM (IL-6) [%] | also measured
1 | 202 to 206 | Nc1cc(=O)nc(Nc2ccccc2)n1-c1ccccc1 [Example 1, 6-amino-2-phenylamino-1-phenyl-1H-pyrimidin-4-one] |  | Rat Paw Edema model % Inhibition (10 mg/kg body weight) (Male Wistar rats [1]): 10%; Gastro-ulcerogenic potential (% incidence of ulceration) (Male Wistar rats [2]): 24.6%; inhibition at 10 µM (COX-2; Conc. 10 μM): 75.8%; inhibition at 0.25 µM (IL-6; Conc. 0.25 μM): 46.6%
2 | 213 to 216 | COc1ccc(Nc2nc(=O)cc(N)n2-c2ccccc2)cc1 [Example 2, 6-amino-2-(4-methoxy-phenylamino)-1-phenyl-1H-pyrimidin-4-one] | 65.1 | 
3 | 111 to 113 | CCOc1ccc(Nc2nc(=O)cc(N)n2-c2ccccc2)cc1 [Example 3, 6-amino-2-(4-ethoxy-phenylamino)-1-phenyl-1H-pyrimidin-4-one] | 82.3 | inhibition at 1 µM (TNF-α; Conc. 1 μM): 58.3%
4 | 133 to 135 | CSc1ccc(Nc2nc(=O)cc(N)n2-c2ccccc2)cc1 [Example 4, 6-amino-2-(4-methylthio-phenylamino)-1-phenyl-1H-pyrimidin-4-one] | 56.7 | inhibition at 10 µM (TNF-α): 43.5%
5 | 207 to 210 | Cc1ccc(Nc2nc(=O)cc(N)n2-c2ccccc2)cc1 [Example 5, 6-amino-2-(4methyl-phenylamino)-1-phenyl-1H-pyrimidin-4-one] |  | 
6 | 233 to 237 | Nc1cc(=O)nc(Nc2ccc(Cl)cc2)n1-c1ccccc1 [Example 6, 6-amino-2-(4-chloro-phenylamino)-1-phenyl-1H-pyrimidin-4-one] | 44.6 | 
7 | 225 to 227 | Nc1cc(=O)nc(Nc2ccc(F)cc2)n1-c1ccccc1 [Example 7, 6-amino-2-(4-fluoro-phenylamino)-1-phenyl-1H-pyrimidin-4-one] |  | 
8 | 231 to 234 | CSc1ccc(Nc2nc(=O)cc(N)n2-c2ccc(C)cc2)cc1 [Example 8, 6-amino-1-(4-methylphenyl)-2-(4-methylthio-phenylamino)-1H-pyrimidin-4-one] |  | 
9 | 180 to 190 | COc1ccc(-n2c(N)cc(=O)nc2Nc2ccccc2)cc1 [Example 9, 6-amino-1-(4-methoxyphenyl)-2-phenylamino-1H-pyrimidin-4-one] | 75.4 | inhibition at 10 µM (TNF-α): 45.2%
10 | 114 to 118 | CCOc1ccc(-n2c(N)cc(=O)nc2Nc2ccccc2)cc1 [Example 10, 6-amino-1-(4-ethoxyphenyl)-2-phenylamino-1H-pyrimidin-4-one] |  | inhibition at 1 µM (COX-2; Conc. 1 μM): 33.3%
11 | 216 to 222 | Nc1cc(=O)nc(Nc2ccccc2)n1-c1ccc(Cl)cc1 [Example 11, 6-amino-1-(4-chlorophenyl)-2-phenylamino-1H-pyrimidin-4-one] | 59.5 | 
12 | 211 to 213 | Nc1cc(=O)nc(Nc2ccccc2)n1-c1ccc(Br)cc1 [Example 12, 6-amino-1-(4-bromophenyl)-2-phenylamino-1H-pyrimidin-4-one] |  | 
